# Entries after “also recorded” stand apart in the source; their conditions may differ.
# Assays:
# J774.2 macrophages = assay: Macrophage toxicity by flow cytometry; format: cell-based; details: for IC50: J774.2 macrophages, 72 h of culture
# Method: Macrophage toxicity: this study used the experimental model designed by the group of inventors [I. Ramírez-Macías. et. al. J. Antimicrob. Chemother. 2011, 66(4): 813-819] wherein flow cytometry is used. Briefly, macrophages from line J774.2 (ECACC number 91051511, obtained from a BALB/c female […] tumour in 1968) were deposited in a steriling tube and centrifuged at 120 g for 5 minutes. The supernatant was discarded and the cells were resuspended in MEM + Glutamine medium with 20% SBF (fetal bovine serum). 1×10^4 cells per well were then deposited from a 24-well titration plate and incubated for 24-48 h at 37° C. in a humid atmosphere enriched with 5% CO2 to fix them. […] After 72 h of incubation, the samples were prepared for reading on a flow cytometer. Specifically, 100 µl of propidium iodide solution (100 µg/ml) was added to each well and incubated for 10 min at 28° C. in the dark. Subsequently, 100 µl/well of fluorescein diacetate (FDA) (Sigma Chemical Co) in solution (100 ng/mL) was added and incubation was repeated under the same conditions for 10 minutes. Cells were recovered by centrifugation at 400 g for 10 minutes and washing the precipitate with PBS. Finally, the results were analysed in a FACS Vantage flow cytometer (Becton Dickinson) taking into account that the cells with the plasma membrane intact emit green colour as the esterases act on the FDA, while the cells that have lost the integrity of the membrane and are not viable, emit in the range close to 580 nm by penetrating the propidium iodide by passive diffusion and specifically binding to the nucleic acids thereof. Thus, to calculate the percentage of viability, the number of dead cells compared to controls was taken into account.
# [1] = test system: L. donovani promastigote forms; assay: In vitro activity against extracellular (promastigote) forms; format: cell-based, Leishmania donovani; details: for Selectivity Index (SI) L. donvovani Promastigote forms: IC50 of macrophages / IC50 of parasite form; for IC50: Leishmania donovani, 72 h
# Description: Methodology: Cultures of three Leishmania species, representative of the species causing each of the clinical forms of the disease, were used for these studies. Specifically, strains MCAN/ES/2001/UCM-1 O of L.infantum, isolated and characterised in Madrid from an infected dog; MHOM/BR/1975/M2904 of L.braziliensis, isolated in Brazil in a human case, and LCR-L 133 LRC of L.donovani. isolated in Jerusalem, Israel from a case of kala-azar […] (WHO Technical Reports Series 949. Geneva: WHO. March. The cultures of parasites come from an own collection which was prepared from a biobank project (Biobank and Characterisation Unit of Strains and Species of Trypanosomatids, Responsible for Human, Animal and Plant Pathologies, Cgl-2008-03687-E/Bos.), and are available on request.
# The promastigote forms of the three species studied were cultured in vitro in sterility in single-phase MTL culture medium (Medium Trypanosomes Liquid) made from Hank’s Balanced Salts (Sigma-Aldrich, H6136) enriched with 10% (v/v) of Fetal Bovine Serum (SBF-1) inactivated at 56° C./ 30 minutes. The parasite inoculum to initiate the culture was 5 × 10^4 cells/ml in 5 ml medium in 25 cm^2 Falcon® plastic flasks and kept in an oven at 28° C. The cultures were performed routinely, achieving exponential growth of the flagellates until obtaining the cell mass necessary for the subsequent studies. Both promastigote forms and amastigote forms were used to conduct the assays.
# The promastigote forms of the three Leishmania strains, cultured in the manner described above, were harvested in their exponential growth phase by centrifugation at 400 g for 10 min. The number of parasites was counted in a Neubauer Haemocytometer Counting Chamber and were inoculated in a 24-well plate at a concentration of 5 ×10^4 parasites/well.
# The compounds to be assayed were dissolved in DMSO at a concentration of 0.01% (v/v), concentration at which this solvent is not toxic nor has any effect on the growth of parasites. The compounds were added to the culture medium at final concentrations of 100, 50, 25 and 12.5 µM. […] M. et al. Med. Chem. 2011. 54. 970-979].
# [2] = test system: FeSOD of promastigote forms of L.infantum; assay: In vitro inhibition of FeSOD (NBT reduction); format: biochemical, Leishmania infantum
# Method: Methodology: Compounds that were selected from the leishmanicidal activity shown in previous experiments were evaluated as inhibitors of FeSOD enzyme activity, which is unique to the kinetoplastid parasites to which Leishmania belongs. Being exclusive, it is absent in the vertebrate host, since these usually have an analogous form of that enzyme, but complexed to a copper or zinc atom (Cu/ZnSOD). For this reason, this enzyme is a therapeutic target for the design of new drugs, since the capture of the metal ion by complexing mechanisms can inactivate the enzyme and compromise the survival of the parasite with the appearance of free radicals.
# Inhibition caused by the novel compounds on FeSOD/ Cu-Zn SOD activity was quantified on the spectrophotometer at 560 nm according to the technique described by [W F. Beyer. I. Fridovich. Anal Biochem. 1987. 161: 559-66] based on the determination of the reduction of NBT (nitro blue tetrazolium) by superoxide ions and which the group of the present inventors has developed for the assay in trypanosomatides, being a routine technique in the laboratory of said group [F. Luque. et. al. Comp. Biochem. Physiol. C Toxicol. Pharmacol. 2000. 126: 39-44; M. Sanchez-Moreno. Med. Chem. 2011. 54. 970-9; I. Ramírez-Macías. et. al. J. Antimicrob. Chemother 2011. 66(4): […]].
# Briefly, the cultured parasites as described in Example 1 underwent centrifugation, the pellet was resuspended (0.5 - 0.6 g/ml) in 3 ml of STE buffer ([…]. pH 7.8) and underwent 3 cycles of sonication from 30 s at 60 V. Then, it was centrifuged at 1500 g for 10 min at 4° C. and the pellet was washed 3 times with ice-cooled STE buffer. This fraction was centrifuged (2500 g for 10 min at 4° C.) and the supernatant was subsequently collected. Protein concentrations were determined by means of the Bradford method (Sigma-Aldrich) using bovine serum albumin as standard. […] A first measurement of the absorbance at 560 nm was made on a spectrophotometer and, after 10 minutes under light and under stirring conditions, the absorbance was re-determined. […]
SMILES,IC50 (J774.2 macrophages) [µM],Selectivity Index (SI) L. donvovani Promastigote forms [1],IC50 [1] [µM],Concentration for 50% inhibition (IC50) of FeSOD of L.infantum [2],Toxicity in macrophages (IC50) compared with the reference compound (J774.2 macrophages)
"CNCCNCc1ccc2ccccc2n1 [Compound 9, 1-{2-quinolyl)-2,5-diazahexane]",354 ± 31.7,13,27.5 ± 0.4,–,–
"CNCCNCc1ccncc1 [Compound 3, 1-{4-pyridyl)-2,5-diazahexane]",223 ± 17.3,12,18.4 ± 0.8,–,–
"CNCCNCc1cccnc1 [Compound 2, 1-{3-pyridyl)-2,5-diazahexane]",310 ± 11.5,26,11.7 ± 0.8,less than that necessary to achieve the same percentage of inhibition of the CuZnSOD enzyme of human erythrocytes; also recorded: showed ability to inhibit FeSOD; also recorded: low IC50 value,low toxicities
"CN(C)CCNCc1ccnc2ccccc12 [Compound 8, 1-{4-quinolyl)-5-methyl-2,5-diazahexane]",22.5 ± 0.6,2 (2),12.8 ± 0.6,–,–
CN(C)CCNCc1ccncc1 [Compound 6],497 ± 21.5,7,67.9 ± 5.3,–,–
CNCCNCc1ccnc2ccccc12 [Compound 10],164 ± 10,7,24.1 ± 0.6,–,–
"CNCCNCc1ccccn1 [Compound 1, 1-{2-pyridyl}-2,5-diazahexane]",13.7 ± 3.1,2,7 ± 0.5,–,–
"CN(C)CCNCc1cccnc1 [Compound 5, 1-{3-pyridyl}-5-methyl-2,5-diazahexane]",230 ± 16.9,11,21.7 ± 1.6,less than that necessary to achieve the same percentage of inhibition of the CuZnSOD enzyme of human erythrocytes; also recorded: showed ability to inhibit FeSOD,much lower
CN(C)CCNCc1ccc2ccccc2n1 [Compound 7],442 ± 31.6,8,56.9 ± 2.7,–,–
"CN(C)CCNCc1ccccn1 [Compound 4, 1-(2-pyridyl)-5-methyl-2,5-diazahexane]",1240 ± 42.7,36,34.8 ± 1.5,less than that necessary to achieve the same percentage of inhibition of the CuZnSOD enzyme of human erythrocytes; also recorded: showed ability to inhibit FeSOD,–

# From patent publication US20230346769A1, “USE OF SIMPLE ACYCLIC POLYAMINES FOR THE TREATMENT OF DISEASES CAUSED BY PARASITES OF THE GENUS LEISHMANIA” (Universidad De Granada, priority 2020, published 2023)
